From PMC12150326 (The Journal of Organic Chemistry, 2025)
Where two headings read alike, the source gives them in different places.

Legend:
Assay type in all cases: cell-based, human
ACHN = system: ACHN
Outline: (§1)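 Five-dose testing in the National Cancer Institute cell screen covered 100 μM to 0.01 μM.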

CCRF-CEM = system: CCRF-CEM
Outline: as §1

HCT-116 = system: HCT-116
Outline: (§2)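 Both axial enantiomers of the parent and of the iso series were evaluated in the NCI cancer cell panel at doses of 100 μM, 10 μM, 1 μM, 0.1 μM and 0.01 μM.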

HL-60(TB) = system: HL-60(TB)
Outline: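 TGI-based COMPARE analysis set the response profiles against historical NCI-60 data for established antitubulin compounds, after testing at five log-spaced doses (0.01–100 μM) in the 60-line screen.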

HT29 = system: HT29
Outline: as §2

K-562 = system: K-562
Outline: as §2

MCF7 = system: MCF7
Outline: as §2

MDA-MB-231/ATCC = system: MDA-MB-231/ATCC
Outline: as §2

MDA-MB-468 = system: MDA-MB-468
Outline: as §2

MOLT-4 = system: MOLT-4
Outline: as §2

NCI 60 cell lines = system: NCI 60 cell lines
Outline: as §2

NCI-H522 = system: NCI-H522
Outline: as §2

NCI/ADR-RES = system: NCI/ADR-RES
Outline: as §2

OVCAR-8 = system: OVCAR-8
Outline: as §2

PC-3 = system: PC-3
Outline: as §1

RPMI-8226 = system: RPMI-8226
Outline: as §2

RXF 393 = system: RXF 393
Outline: as §2

SF-295 = system: SF-295
Outline: as §2

SK-MEL-2 = system: SK-MEL-2
Outline: as §2

SK-MEL-5 = system: SK-MEL-5
Outline: as §2

SK-OV-3 = system: SK-OV-3
Outline: as §2

T-47D = system: T-47D
Outline: as §2

TK-10 = system: TK-10
Outline: as §1

U251 = system: U251
Outline: as §2

UACC-257 = system: UACC-257
Outline: as §2

UO-31 = system: UO-31
Outline: as §2

COc1cc(C)c(-c2ccc(=O)c(OC)cc2C)c(OC)c1OC (single isomer, unassigned) [(aS)-iso-6]
Log10GI50 (ACHN): -4.07 Molar | Log10LC50 (ACHN): > -4.00 Molar | Log10TGI (ACHN): > -4.00 Molar | GI50 (ACHN; Homo sapiens): 85.1 µM | Log10GI50 (ACHN; […]): -4.07 Molar | Log10GI50 (CCRF-CEM): -4.53 Molar | Log10LC50 (CCRF-CEM): > -4.00 Molar | Log10TGI (CCRF-CEM): > -4.00 Molar | GI50 (CCRF-CEM; Homo sapiens): 29.5 µM | Log10GI50 (CCRF-CEM; […]): -4.53 Molar | Log10GI50 (HCT-116): -4.60 Molar | Log10LC50 (HCT-116): > -4.00 Molar | Log10TGI (HCT-116): > -4.00 Molar | GI50 (HCT-116; Homo sapiens): 25.1 µM | Log10GI50 (HCT-116; […]): -4.6 Molar | Log10GI50 (HL-60(TB)): -4.68 Molar | Log10LC50 (HL-60(TB)): > -4.00 Molar | Log10TGI (HL-60(TB)): -4.02 Molar | GI50 (HL-60(TB); Homo sapiens): 20.9 µM | Log10GI50 (HL-60(TB); […]): -4.68 Molar | Log10GI50 (HT29): -4.60 Molar | Log10LC50 (HT29): > -4.00 Molar | Log10TGI (HT29): -4.03 Molar | GI50 (HT29; Homo sapiens, HT-29): 25.1 µM | Log10GI50 (HT29; […]): -4.6 Molar | Log10GI50 (K-562): -5.30 Molar | Log10LC50 (K-562): > -4.00 Molar | Log10TGI (K-562): > -4.00 Molar | GI50 (K-562; Homo sapiens, K562): 5.01 µM | Log10GI50 (K-562; […]): -5.3 Molar | Log10GI50 (MCF7): -4.60 Molar | Log10LC50 (MCF7): > -4.00 Molar | Log10TGI (MCF7): > -4.00 Molar | GI50 (MCF7; Homo sapiens): 25.1 µM | Log10GI50 (MCF7; […]): -4.6 Molar | Log10GI50 (MDA-MB-231/ATCC): -4.63 Molar | Log10LC50 (MDA-MB-231/ATCC): > -4.00 Molar | Log10TGI (MDA-MB-231/ATCC): > -4.00 Molar | GI50 (MDA-MB-231/ATCC; Homo sapiens): 23.4 µM | Log10GI50 (MDA-MB-231/ATCC; […]): -4.63 Molar | Log10GI50 (MDA-MB-468): -4.85 Molar | Log10LC50 (MDA-MB-468): > -4.00 Molar | Log10TGI (MDA-MB-468): > -4.00 Molar | GI50 (MDA-MB-468; Homo sapiens): 14.1 µM | Log10GI50 (MDA-MB-468; […]): -4.85 Molar | Log10GI50 (MOLT-4): -4.44 Molar | Log10LC50 (MOLT-4): > -4.00 Molar | Log10TGI (MOLT-4): > -4.00 Molar | GI50 (MOLT-4; Homo sapiens): 36.3 µM | Log10GI50 (MOLT-4; […]): -4.44 Molar | fold less potent than (aR)-6 in NCI-60 screen (NCI 60 cell lines): approximately 10 fold | selectivity range (NCI 60 cell lines; NCI-60, GI50 level): 1.46 log units | Log10 Range at TGI (NCI 60 cell lines; NCI-60 cell line selectivity): 0.81 | GI50 (NCI 60 cell lines; NCI-60 mean): 27 µM | Mean TGI (NCI 60 cell lines; NCI-60 mean total growth inhibition): 91 µM | Delta Log10GI50 (NCI 60 cell lines; mean graph): 0.89 | Delta Log10LC50 (NCI 60 cell lines; mean graph): 0 | Delta Log10TGI (NCI 60 cell lines; mean graph): 0.77 | Range Log10GI50 (NCI 60 cell lines; mean graph): 1.46 | Range Log10LC50 (NCI 60 cell lines; mean graph): 0.0 | Range Log10TGI (NCI 60 cell lines; mean graph): 0.81 | _MID Log10GI50 (NCI 60 cell lines; mean graph midpoint): -4.57 Molar | _MID Log10LC50 (NCI 60 cell lines; mean graph midpoint): -4.0 Molar | _MID Log10TGI (NCI 60 cell lines; mean graph midpoint): -4.04 Molar | Log10GI50 (NCI-H522): -4.69 Molar | Log10LC50 (NCI-H522): > -4.00 Molar | Log10TGI (NCI-H522): -4.15 Molar | GI50 (NCI-H522; Homo sapiens): 20.4 µM | Log10GI50 (NCI-H522; […]): -4.69 Molar | Log10GI50 (NCI/ADR-RES): -4.55 Molar | Log10LC50 (NCI/ADR-RES): > -4.00 Molar | Log10TGI (NCI/ADR-RES): > -4.00 Molar | GI50 (NCI/ADR-RES; Homo sapiens): 28.2 µM | Log10GI50 (NCI/ADR-RES; […]): -4.55 Molar | Log10GI50 (OVCAR-8): -4.45 Molar | Log10LC50 (OVCAR-8): > -4.00 Molar | Log10TGI (OVCAR-8): > -4.00 Molar | GI50 (OVCAR-8; Homo sapiens): 35.5 µM | Log10GI50 (OVCAR-8; […]): -4.45 Molar | Log10GI50 (PC-3): -4.50 Molar | Log10LC50 (PC-3): > -4.00 Molar | Log10TGI (PC-3): > -4.00 Molar | GI50 (PC-3; Homo sapiens): 31.6 µM | Log10GI50 (PC-3; […]): -4.5 Molar | Log10GI50 (RPMI-8226): -4.38 Molar | Log10LC50 (RPMI-8226): > -4.00 Molar | Log10TGI (RPMI-8226): > -4.00 Molar | GI50 (RPMI-8226; Homo sapiens): 41.7 µM | Log10GI50 (RPMI-8226; […]): -4.38 Molar | Log10GI50 (RXF 393): -4.68 Molar | Log10LC50 (RXF 393): > -4.00 Molar | Log10TGI (RXF 393): -4.12 Molar | GI50 (RXF 393; Homo sapiens): 20.9 µM | Log10GI50 (RXF 393; […]): -4.68 Molar | Log10GI50 (SF-295): -4.64 Molar | Log10LC50 (SF-295): > -4.00 Molar | Log10TGI (SF-295): > -4.00 Molar | GI50 (SF-295; Homo sapiens): 25.7 µM | Log10GI50 (SF-295; […]): -4.59 Molar | Log10GI50 (SK-MEL-2): -4.69 Molar | Log10LC50 (SK-MEL-2): > -4.00 Molar | Log10TGI (SK-MEL-2): > -4.00 Molar | GI50 (SK-MEL-2; Homo sapiens): 20.4 µM | Log10GI50 (SK-MEL-2; […]): -4.69 Molar | Log10GI50 (SK-MEL-5): -4.34 Molar | Log10LC50 (SK-MEL-5): > -4.00 Molar | Log10TGI (SK-MEL-5): > -4.00 Molar | GI50 (SK-MEL-5; Homo sapiens): 45.7 µM | Log10GI50 (SK-MEL-5; […]): -4.34 Molar | Log10GI50 (SK-OV-3): -4.57 Molar | Log10LC50 (SK-OV-3): > -4.00 Molar | Log10TGI (SK-OV-3): > -4.00 Molar | GI50 (SK-OV-3; Homo sapiens): 26.9 µM | Log10GI50 (SK-OV-3; […]): -4.57 Molar | Log10GI50 (T-47D): -4.58 Molar | Log10LC50 (T-47D): > -4.00 Molar | Log10TGI (T-47D): > -4.00 Molar | GI50 (T-47D; Homo sapiens, T47D): 26.3 µM | Log10GI50 (T-47D; […]): -4.58 Molar | Log10GI50 (TK-10): > -4.00 Molar | Log10LC50 (TK-10): > -4.00 Molar | Log10TGI (TK-10): > -4.00 Molar | GI50 (TK-10; Homo sapiens): > 100 µM | Log10GI50 (TK-10; […]): > -4 Molar | Log10GI50 (U251): -4.51 Molar | Log10LC50 (U251): > -4.00 Molar | Log10TGI (U251): > -4.00 Molar | GI50 (U251; Homo sapiens, U-251): 18.8 µM | Log10GI50 (U251; […]): -4.725 Molar | Log10GI50 (UACC-257): -4.15 Molar | Log10LC50 (UACC-257): > -4.00 Molar | Log10TGI (UACC-257): > -4.00 Molar | GI50 (UACC-257; Homo sapiens): 70.8 µM | Log10GI50 (UACC-257; […]): -4.15 Molar | Log10GI50 (UO-31): -4.34 Molar | Log10LC50 (UO-31): > -4.00 Molar | Log10TGI (UO-31): > -4.00 Molar | GI50 (UO-31; Homo sapiens): 45.7 µM | Log10GI50 (UO-31; […]): -4.34 Molar
